# Assay results as given in publication PMC5610309, “In vivo target exploration of apidaecin based on Acquired Resistance induced by Gene Overexpression (ARGO assay)” (Scientific Reports, 2017).
# Where no end group is shown, it is not given here. [ ]: non-standard residue; d: D form.
# How the values were obtained:
# [1] = tested on: enoyl-ACP reductase (FabI); assay: ARGO assay, positive control, FabI-overexpressing E. coli; assay type: cell-based, Escherichia coli; conditions: 250 nM triclosan; increasing IPTG (Fig. S2)
# Protocol: IPTG Concentration / μM IPTG Concentartion / μM
# Figure S2. Acquired resistance assay induced by overexpression of target proteins. A:
# concentration. Black line: no triclosan (OD Tc(-)). Gray line: 250 nM triclosan (OD Tc(+)).
# overexpression. […] Black line: no
# trimethoprim. Gray line: 125 μM trimethoprim. D: The degree of resistance against
# [2] = tested on: dihydrofolate reductase (FolA); conditions: 125 μM trimethoprim; increasing IPTG (Fig. S2)
# Protocol: (§4) The recombinant E. coli strain JM109 harboring pCA24N derivatives were grown on 2 mL LB medium containing 30 µg/mL chloramphenicol in a test tube, with reciprocal shaking at 175 rpm at 37 °C for 18 h. A total of 80 μL culture medium was transferred into fresh 2 mL LB medium containing 30 µg/mL chloramphenicol and different concentrations of IPTG (see Supplementary Information for detail), and further incubated at 37 °C with until the OD at 600 nm reached 0.4. The pre-culture was diluted 10^5 times with PB medium containing 30 µg/mL chloramphenicol so that the initial cell density was approximately 1000 colony forming units/mL. Then a 50 µL aliquot was combined with a 50 µL mixture of apidaecin and IPTG (final concentration of apidaecin was 6.25 µM). As a control, 50 µL IPTG and 50 µL sterilized water were added, respectively. The cells were cultivated in 96-well plates using a microplate shaker (BioShaker M-BR-024 Taitec, Shizuoka, Japan) with shaking at 1200 rpm at 30 °C for 18 h. […] Cell growth in a 96-well plate was optically measured using a microplate reader (iMark Microplate Absorbance Reader, Bio-rad) at a wavelength of 595 nm. The degree of resistance against apidaecin was defined as the OD obtained with the addition of IPTG and apidaecin divided by the OD with the addition of IPTG only.1 Degreeofresistance=ODwithapidaecinandIPTG/ODwithIPTG […]
# [3] = tested on: peptide chain release factor 1 (PrfA); assay: ARGO assay, apidaecin resistance of PrfA-overexpressing E. coli (ASKA clone); assay type: cell-based, Escherichia coli; conditions: 6.25 μM apidaecin; E. coli JM109 ASKA clone, IPTG-induced; 30 °C, 18 h; OD595; three trials
# Protocol: as §4
# [4] = tested on: lacZ reporter gene expression in E. coli MG1655; assay: Inhibition assay of LacZ expression (X-gal chromogenesis); assay type: cell-based, Escherichia coli; conditions: 500 μM; E. coli treated 1 h, then IPTG; ΔOD595 with and without X-gal; three trials
# Protocol: (§1) The 96-well plate culture was started as well as Procedure B with a modification that the cells were resuspended in 1 mL PB medium containing 100 μg/ml 5-bromo-4-chloro-3-indolyl-β-D-galactopyranoside (X-gal). After 60 min, 0.1 mM IPTG was added and the plate was further incubated for 120 min. The OD of the culture in the test tube was measured using a UV-VIS spectrophotometer (Genesys20, Thermo Scientific, Waltham, MA, USA) at 600 nm, and OD in the 96-well plate was monitored at 595 nm using an iMark Microplate Absorbance Reader (Biorad, Hercules, CA, USA).
# E. coli MG1655 cells were cultivated using Procedure D. The activity of LacZ was estimated based on the subtraction of ODs at 595 nm obtained with and without supplement of X-gal.
# PrfB = assay: ARGO assay, apidaecin resistance of PrfB-overexpressing E. coli (ASKA clone); assay type: cell-based, Escherichia coli; conditions: 6.25 μM apidaecin; E. coli JM109 ASKA clone, IPTG-induced; 30 °C, 18 h; OD595
# Protocol: as §4
# [5] = tested on: lacZ expression in MG1655(lacZ-UAA), MG1655(lacZ-UGA), MG1655(lacZ-UAG); assay: In vivo inhibitory assay of lacZ expression with different stop codons (immunoblot); assay type: cell-based, Escherichia coli; conditions: 250 and 500 μM apidaecin
# Protocol: (§2) The E. coli strain MG1655 from Procedure C were harvested and suspended in lysis buffer containing 50 mM sodium phosphate (pH 7.0), 10 mM imidazol, and 300 mM NaCl. The OD was normalized using lysis buffer, after which the crude extract was prepared using sonication on ice 5 s × 5 times. Anti-β-galactosidase antibody (Biotin) ab6645 was purchased from abcam (Cambridge, UK) and used at a 10^5-fold dilution. Immun-Star Goat Anti-Rabbit (GAR)-HRP Conjugate (Biorad) was used as the secondary antibody. Bands were detected using the ECL Select Western Blotting Detection Reagent (GE Healthcare, Little Chalfont, UK) and were recorded on ChemiDox XRS (Biorad). Band density was quantified using ImageJ software.
# The C-terminal region of the lacZ gene in E. coli chromosomal DNA was replaced with three DNA fragments containing three stop codons (Fig. S4). The DNA fragments including a flippase recognition target (FRT) cassette with a kanamycin-resistant gene, and the C-terminal sequence of the lacZ gene with three stop codons, were amplified from pKD13 using three forward primers: […], […], and […] (stop codons are underlined), and a reverse primer: […]. The template DNA in the PCR products was removed by DpnI treatment. […] Ampicilline-sensitive colonies were chosen and recombination in their chromosomal DNA was evaluated by colony PCR and sequencing. […]
# [6] = tested on: lacZ expression in PURE system (PrfA-dependent termination); assay: Inhibitory assay using the in vitro transcription-translation system (PURE system); assay type: biochemical; conditions: 200 μM apidaecin; for inhibition ratio of lacZ (UAG) expression: PrfB omitted, 37 °C, 3 h, immunoblot
# Protocol: The PCR products were purified by agarose gel extraction and used for second PCR to add the T7 promoter sequence using a forward primer 2, […], and aforementioned reverse primers. The amplified DNA was treated with chloroform/phenol/isoamyl alcohol, concentrated by ethanol precipitation, and diluted to 100 ng/μl using RNase free water. The DNA solution was used for in vitro transcription-translation reaction using PUREfrex ver 1.0 (GeneFrontier Corp., Chiba, Japan). The solution I, II, and III provided by the kit protocol was combined with the apidaecin solution to contain 0 to 200 μM apidaecin. […] Ten microliter solution I, 1 μL solution II, 1 μL solution III, 0.1 μL 6 μM T7 RNA polymerase, 0.5 μL 4 or 0.8 μM RF1, 0.5 μL 4 μM RF3, 0.5 μL 40 μM RRF, and 0–4 μL 1 mM apidaecin were combined and diluted to 19 μL with RNAse free water. The mixture was incubated at room temperature for 15 min, and 1 μL template DNA (LacZ [UAG]) was added. Then the mixture was further incubated at 37 °C from 3 h. Then 1 μL reaction mixture was used for immnoblot analysis.
# [7] = tested on: lacZ mRNA transcription in E. coli MG1655; assay: Quantification of lacZ mRNA by real-time reverse transcriptase-PCR; assay type: cell-based, Escherichia coli; conditions: 500 μM and 0.1 mM IPTG; quantitative real-time PCR
# Protocol: (§3) The 96-well plate culture was started following Procedure B. After 60 min, 0.1 mM IPTG was added and the plate was incubated for an additional 60 min.
# The E. coli strain MG1655 from Procedure C were harvested by centrifugation at 4 °C, and total RNA was extracted using Isogen (Nippongene, Toyama, Japan) according to the manufacturer’s instructions. The reverse transcriptase reaction was performed using PrimeScript RT-PCR Kit (Takara, Tokyo, Japan) based on the provided protocol. The lacZ fragment was amplified using a pair of primers: lacZ_RTf1, […] and lacZ_RTr1, with […] used as the standard. The standard curve was made in the range of 10^−3 to 10^−7 ng DNA/μL. A total of 6 μL reverse transcriptase reaction product was combined with 10 μL TaqMan Gene Expression Master Mix (Applied Biosystems, Foster City, CA, USA), 1 μL lacZ_RTf1, 1 μL lacZ_RTr1, and 2 μL TaqMan probe lacZ_2116, […], which was bound to fluorescein as a reporter and NFQ-MGB as a quencher. The samples were prepared in triplicate and transferred to a MicroAmp Fast Optical 48-well Reaction Plate (Applied Biosystems) and sealed with a MicroAmp Optical 48-well Adhesive Film. The plate was centrifuged at 1,970 g for 10 min at 4 °C. Real-time PCR (qPCR) was performed using the StepOne real-time PCR system (Applied Biosystems). […]
# E. coli [8] = assay: Growth of E. coli in 96-well plate culture with antimicrobial agent; assay type: cell-based, Escherichia coli; conditions: 500 μM
# Protocol: E. coli were grown on 2 mL LB medium in a test tube containing 10 g/L trypton, 5 g/L Bacto yeast extract, and 10 g/L sodium chloride, with reciprocal shaking at 175 rpm at 30 °C for 14 h. A total of 20 μL culture medium was transferred into 2 mL fresh LB medium and incubated at 30 °C until the OD at 600 nm reached 0.2.
# The cells from Procedure A were washed with 2 mL PB medium containing 10 g/L trypton and 9 g/L sodium chloride, and re-suspended in 1 mL PB medium. A total of 80 μL medium was combined with 20 μL antimicrobial agents, followed by incubation in a 96-well plate at 30 °C for 4 h with shaking at 1200 rpm.
# as §1
# [9] = tested on: β-galactosidase protein synthesis in E. coli MG1655; assay: Immunoblot analysis of native LacZ; assay type: cell-based, Escherichia coli; conditions: 500 μM and 0.1 mM IPTG
# Protocol: as §3, §2
# E. coli [10] = conditions: relative to wild type apidaecin Ho +; cited from earlier work
compound,measurement,setting,value
Oc1cc(Cl)ccc1Oc1ccc(Cl)cc1Cl [triclosan],sensitivity of E. coli upon overexpression of FabI,[1],reduced the sensitivity
COc1cc(Cc2cnc(N)nc2N)cc(OC)c1OC [trimethoprim],sensitivity of E. coli upon overexpression of FolA,[2],reduced the sensitivity
"GNNRPVYIPQPRPPHPRL [apidaecin, Apidaecin Ib, proline-rich AMP isolated from the hemolymph of honeybees; purchased from Bex Corp]",degree of resistance against apidaecin upon PrfA overexpression (OD with apidaecin and IPTG / OD with IPTG),[3],up to 80%
same,inhibition of β-galactosidase-mediated chromogenesis,[4],almost completely inhibited
same,cell growth in the presence of apidaecin upon PrfB overexpression,PrfB,did not promote cell growth
same,expression levels of whole proteins,"[5]; SDS-PAGE, all three stop codon constructs",decreased expression levels of whole proteins
same,"degree of inhibition of lacZ expression, UAG stop codon versus other constructs","[5]; immunoblot anti-LacZ, UAG recognized only by PrfA",considerably stronger inhibition
same,inhibition efficiency of lacZ expression by stop codon,"[6]; lacZ-UAA, lacZ-UGA, lacZ-UAG templates, UAG stop codon",most efficient inhibition
same,inhibition ratio of lacZ (UAG) expression,[6]; low PrfA concentration (20 nM PrfA),45%
same,inhibition ratio of lacZ (UAG) expression,[6]; standard PrfA concentration (100 nM PrfA),21%
same,influence on lacZ mRNA transcription,[7],no significant influence
same,inhibition of cell growth,"E. coli [8]; PB medium, 96-well plate, 30 °C, OD595, three trials",almost completely inhibited
same,β-galactosidase protein synthesis,[9],considerably diminished
L17D-L mutant of apidaecin Ho + (GKPRPQQVPPRPPHPR[dL]),antibacterial activity toward E. coli compared to wild type peptide,E. coli [10],0.1 fold
L18dL apidaecin 1b,antimicrobial effect against E. coli,E. coli [8]; data not shown,no antimicrobial effect
